# Results reported in patent US8778643B2, “Methods for increasing lipid levels and producing triacylglycerols in algae” (priority 2012, dated 2014).
# Read-outs that look alike come from different tables or passages of the source.
# Key:
# Nannochloropsis sp. = assay: Microplate assay: increase of lipid production (Table 17); type: cell-based; conditions: best conc. 2.4 nM
# From the text: We also tested a collection with more antioxidants, kinase inhibitors, and further compounds for increase of lipid production with N. salina, P. tricornutum, N. oculata, and Nannochloropsis sp.
# Nannochloropsis oculata = conditions: microplate assay, multiple concentrations
# Nannochloropsis salina = conditions: microplate assay, multiple concentrations
# Procedure: Stock cultures were aerated by stirring with bubbling air (homemade manifold with Petco air pump, 2-4% CO2) or by orbital shaking (Thermo Scientific MAXQ 2000) at a constant speed of 150 rpm at 22±3° C. with a 16:8 hour light/dark cycle. Stocks were kept at stationary phase for use. Algae were prepared as dictated by culture center.
# Compounds were selected based on reported biological activity in non-microalgae organisms. To ensure that compounds retained their quality, they were stored under advised conditions after purchasing from the manufacturer. Solutions of all assay compounds were prepared as 10 mM stock solutions by dissolving in DMSO in 2-dram amber vials and then stored in darkness −20° C. 96-well PCR plates were used to create a stock plate layout that was then transferred to the algae microplates. A plate map was used to distribute each compound to a well based on molecule name, collection number, and CAS number. For 20 μM and 200 nM assay plates, 10 mM compound stock in DMSO was diluted into plate maps of 5 mM and 50 μM assay stocks, respectively.
# All materials for assay experiments were autoclaved before each use to maintain axenic algae cultures. Algae species were checked for homogeneity using a TS-100 light microscope (Nikon, Japan). […] Diluted stock solutions were made immediately prior to use for consistency and optimal plate growth. Cell density was measured on a Thermo Scientific Genesys 10S Vis Spectrophotometer (ThermoFisher, San Jose), using a 1 mL cuvette at 680 nm.
# Plates were originally run in triplicate, before replicates were increased to quadruplicate, along with a separate control plate to compare growth. Due to extensive evaporation in exterior wells over time, our unique algae plate layout was designed to use the 60 interior wells out of 96 wells for the experiment. The 36 outer wells were filled with Millipore water and media to prevent evaporation and edge effects in the inner algae wells, as well as serve as blanks. The 60 wells with algae contained a total volume of 251 μL (100 μL of media+DMSO compound stock +150 μL dilute algae stock). For 20 μM and 200 nM assay plates, 10 mM compound stock in DMSO is diluted into plate maps of 5 mM and 50 μM assay stocks, respectively. […] Plates were parafilmed during growth to limit the amount of evaporation that can occur. Plates were numbered, and numerically ordered to ensure they got the same shaker space.
# The shakers are kept at a constant shaking of 150 rpm. Ambient temperature is 22±3° C.
# FABI = conditions: cited from earlier work
# Nannochloris sp. = assay: Microplate assay: growth (absorbance 680 nm) and intracellular lipids (Nile Red fluorescence); type: cell-based; conditions: microplate assay, multiple concentrations
# [1] = system: Phaeodactylum tricornutum; assay: as above; type: cell-based
# Cdk2/cyclin A = Cdk2/cyclin A (Homo sapiens, UniProt P24941); conditions: CDK2/A; cited from earlier work
# CDK4/cyclin D1 = CDK4/cyclin D1 (Homo sapiens, UniProt P11802); conditions: cited from earlier work
# CDK4/cyclin D1, sequence (P11802 whole entry, species assumed): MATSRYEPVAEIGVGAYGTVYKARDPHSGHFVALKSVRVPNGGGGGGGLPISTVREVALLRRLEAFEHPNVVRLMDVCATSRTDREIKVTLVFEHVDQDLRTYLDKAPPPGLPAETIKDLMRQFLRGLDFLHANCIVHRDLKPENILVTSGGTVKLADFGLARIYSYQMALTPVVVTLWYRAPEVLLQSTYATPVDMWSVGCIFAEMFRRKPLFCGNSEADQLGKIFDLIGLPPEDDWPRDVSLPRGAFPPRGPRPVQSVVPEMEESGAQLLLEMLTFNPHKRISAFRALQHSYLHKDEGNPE
# CDK4/cyclin D1, sequence (P24385 whole entry partner, species assumed): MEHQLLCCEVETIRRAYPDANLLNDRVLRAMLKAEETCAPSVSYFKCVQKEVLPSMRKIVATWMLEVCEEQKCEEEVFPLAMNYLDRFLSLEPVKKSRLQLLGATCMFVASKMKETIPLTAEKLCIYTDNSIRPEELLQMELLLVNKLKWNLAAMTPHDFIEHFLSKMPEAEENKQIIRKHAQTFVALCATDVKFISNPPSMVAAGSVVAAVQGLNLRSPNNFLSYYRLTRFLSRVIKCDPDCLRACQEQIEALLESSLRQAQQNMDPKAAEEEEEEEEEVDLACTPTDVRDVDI
smiles,measurement,setting,value
"Cc1c(C)c2c(c(C)c1O)CC[C@@](C)(CCC[C@H](C)CCC[C@H](C)CCCC(C)C)O2 (racemic) [DL-α-Tocopherol (Vitamin E), (2R)-2,5,7,8-tetramethyl-2-[(4R,8R)-4,8,12-trimethyltridecyl]-3,4-dihydrochromen-6-ol]",% Inc,Nannochloropsis sp.,31.44%
"O=C(O[C@@H]1Cc2c(O)cc(O)cc2O[C@@H]1c1ccc(O)c(O)c1)c1cc(O)c(O)c(O)c1 [(−)-epicatechin gallate, [(2R,3R)-2-(3,4-dihydroxyphenyl)-5,7-dihydroxy-3,4-dihydro-2H-chromen-3-yl] 3,4,5-trihydroxybenzoate]",effect on lipid production / lipid levels,Nannochloropsis oculata,lipid production increased
same,effect on lipid production / lipid levels,Nannochloropsis salina,lipid production increased
same,IC50,FABI,200 nM
same,effect on lipid production / lipid levels,Nannochloris sp.,lipid production increased
same,% Inc,"[1]; increase of lipid production, P. tricornutum, best conc. 156 nM",77.89%
same,effect on lipid production / lipid levels,"[1]; microplate assay, multiple concentrations",lipid production increased
same,concentration of the highest lipid increase,"[1]; microplate, catechin screen (FIG. 14)",39 to 56 nM
"O=C1NC(=O)c2c1c1c3ccccc3[nH]c1c1[nH]c3cc(Br)ccc3c21 [CDK4 Inhibitor 3, 2-Bromo-12,13-dihydro-5H-indolo[2,3a]pyrrolo[3,4-c]carbazole-5,7(6H)-dione]",IC50,Cdk2/cyclin A,> 200000 nM
same,IC50,CDK4/cyclin D1; CDK4/D1,6000 nM
COc1ccc(OC)c2c(=S)c3ccccc3[nH]c12 [CDK4 Inhibitor II NSC],IC50,CDK4/cyclin D1; CDK4/cyclin D1,200 nM
